Test systems include HOP-92 NSCLC; SF-268 CNS; SNB-19 CNS; PC-3 prostate; SK-MEL-5 melanoma; TK-10 renal; MALME-3M melanoma; NCI-H522 lung; SR leukemia; SK-MEL-2 melanoma.
What all share (test): growth of human tumour cells (NCI), 48 h

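These data come from cells grown in 96-well plates and exposed to compound for 48 hours at five concentrations. GI50: concentration for 50% inhibition of growth. The concentration for full growth arrest is given as TGI.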

As to `CCCCCCNC(=O)Oc1ccc(/C(=C(/C)Cc2ccc(OC)cc2)c2ccc(OCCCN(C)C)cc2)cc1`, the GI50 in the assay with HOP-92 NSCLC is 9.99 µM; with SF-268 CNS, 15 µM; in the assay with SNB-19 CNS, 17.2 µM; in the assay on PC-3 prostate, 14.6 µM; in the assay with SK-MEL-5 melanoma it was 16.4 µM; in the assay on TK-10 renal, 17.2 µM. The GI50 in the assay on MALME-3M melanoma is 15.3 µM; in the assay with NCI-H522 lung, 16.2 µM; with SR leukemia, 2.79 µM; in the assay with SK-MEL-2 melanoma it was 18.5 µM. In addition, the TGI was 22.4 µM with HOP-92 NSCLC; 30.5 µM in the assay with SF-268 CNS; 31.5 µM in the assay with SNB-19 CNS; 28.2 µM in the assay with PC-3 prostate; 30.1 µM in the assay on SK-MEL-5 melanoma; 31.6 µM in the assay on TK-10 renal. Moreover, the TGI with MALME-3M melanoma was determined as 30.5 µM; in the assay with NCI-H522 lung it was 31.3 µM; with SR leukemia it was 11.9 µM; in the assay on SK-MEL-2 melanoma it was 34 µM.
`COc1cc(-c2cc(-c3ccc(Nc4ccnc5cc(Cl)ccc45)cc3)nc(N3CCOCC3)n2)cc(OC)c1OC`: the GI50 in the assay with HOP-92 NSCLC was 1.85 µM; in the assay with SF-268 CNS it was 2.04 µM; in the assay on SNB-19 CNS it was 2.36 µM; in the assay with PC-3 prostate it was 1.78 µM; with SK-MEL-5 melanoma it was 3.5 µM; with TK-10 renal, 1.82 µM. Moreover, the GI50 with MALME-3M melanoma is 1.86 µM; in the assay with NCI-H522 lung, 2.03 µM; with SR leukemia it was 0.468 µM; with SK-MEL-2 melanoma it was 11.8 µM. Besides, the TGI in the assay on HOP-92 NSCLC was 4.81 µM; in the assay on SF-268 CNS, 5.7 µM; in the assay with SNB-19 CNS it was 5.28 µM; with PC-3 prostate, 3.69 µM; in the assay on SK-MEL-5 melanoma it was over 100 µM; with TK-10 renal, 3.3 µM. For the same molecule, the TGI in the assay with MALME-3M melanoma amounted to 3.97 µM; in the assay on NCI-H522 lung, 5.03 µM; in the assay with SR leukemia, 2.41 µM; with SK-MEL-2 melanoma, 48 µM.
As for `N[C@@H]1C(=O)N2C(C(=O)OC(c3ccccc3)c3ccccc3)=C(CCl)CS[C@H]12`, the GI50 in the assay with HOP-92 NSCLC is 38.3 µM; with SF-268 CNS, 31.7 µM; in the assay on SNB-19 CNS, 66.7 µM; in the assay on PC-3 prostate, 32.4 µM; with SK-MEL-5 melanoma, 40.8 µM; with TK-10 renal, 50.1 µM. The GI50 was over 74.5 µM with MALME-3M melanoma, 31 µM in the assay on NCI-H522 lung, 2.12 µM with SR leukemia and 54.2 µM with SK-MEL-2 melanoma. Moreover, the TGI in the assay with HOP-92 NSCLC is over 71.4 µM; in the assay on SF-268 CNS it was 98.7 µM; in the assay on SNB-19 CNS, over 100 µM; in the assay on PC-3 prostate, over 100 µM; in the assay on SK-MEL-5 melanoma it was over 100 µM; in the assay on TK-10 renal, over 100 µM. In addition, the TGI was over 100 µM in the assay with MALME-3M melanoma, over 84.7 µM with NCI-H522 lung, 33.8 µM with SR leukemia and over 100 µM in the assay on SK-MEL-2 melanoma.
In the case of `NC1=NC(c2ccc(Cl)cc2)N(c2ccc(S(N)(=O)=O)cc2)C(N)=N1` (configuration not stated), the TGI in the assay with HOP-92 NSCLC, in the assay on SF-268 CNS, in the assay on SNB-19 CNS, in the assay on PC-3 prostate, with SK-MEL-5 melanoma and in the assay on TK-10 renal was over 100 µM throughout. The TGI with MALME-3M melanoma, in the assay with NCI-H522 lung, in the assay with SR leukemia and with SK-MEL-2 melanoma was over 100 µM each time.
For the molecule `FC(F)(F)c1ccc(-c2cnc(-n3cc(COCCN4CCCCC4)nn3)nc2NC2CCCCCC2)cc1`, the GI50 is 0.523 µM with HOP-92 NSCLC; 3.98 µM with SF-268 CNS; 3.61 µM with SNB-19 CNS; 2.93 µM in the assay on PC-3 prostate; 3.46 µM in the assay on SK-MEL-5 melanoma; 4.14 µM with TK-10 renal. Further, the GI50 in the assay on MALME-3M melanoma was 4.24 µM; with NCI-H522 lung, 3.93 µM; in the assay with SR leukemia it was 2.61 µM; in the assay with SK-MEL-2 melanoma it was 4.42 µM. The TGI worked out at 3.37 µM with HOP-92 NSCLC; 7.87 µM with SF-268 CNS; 7.11 µM with SNB-19 CNS; 6.18 µM in the assay on PC-3 prostate; 6.74 µM in the assay on SK-MEL-5 melanoma; 7.81 µM with TK-10 renal. Besides, the TGI is 8.47 µM in the assay on MALME-3M melanoma, 7.99 µM with NCI-H522 lung, 7.73 µM in the assay on SR leukemia and 8.22 µM with SK-MEL-2 melanoma.
For `COc1ccc2c(C3(c4cn(C)c5cc(OC)ccc45)C(=O)Nc4ccc(Cl)cc43)cn(C)c2c1`, the GI50 in the assay with HOP-92 NSCLC was 3.02 µM; with SF-268 CNS, 3.67 µM; in the assay with SNB-19 CNS, 5.81 µM; in the assay on PC-3 prostate, 3.65 µM; in the assay on SK-MEL-5 melanoma it was 4.26 µM; in the assay with MALME-3M melanoma, 3.62 µM. The GI50 with NCI-H522 lung was 3.38 µM; in the assay on SR leukemia, 2.64 µM; in the assay on SK-MEL-2 melanoma it was 2.97 µM. Also, the TGI with HOP-92 NSCLC was 37.4 µM; in the assay on SF-268 CNS it was over 100 µM; with SNB-19 CNS, over 100 µM; in the assay with PC-3 prostate, over 100 µM; in the assay on SK-MEL-5 melanoma it was 20.8 µM; in the assay on MALME-3M melanoma, 57.6 µM. Further, the TGI in the assay on NCI-H522 lung was found to be 12.7 µM; with SR leukemia, 6.83 µM; with SK-MEL-2 melanoma it was 6.55 µM.
For the molecule `Cc1ccc(C(NC(=O)c2ccccc2)c2ccc3cccnc3c2O)cc1` (configuration not stated), the GI50 in the assay with HOP-92 NSCLC is 0.145 µM; in the assay on SF-268 CNS it was 0.266 µM; in the assay with SNB-19 CNS it was 0.492 µM; with PC-3 prostate, 0.354 µM; with SK-MEL-5 melanoma it was 0.201 µM; in the assay with TK-10 renal it was 0.413 µM. Moreover, the GI50 was 0.441 µM in the assay with MALME-3M melanoma, 0.31 µM with NCI-H522 lung, 0.197 µM in the assay with SR leukemia and 0.608 µM in the assay with SK-MEL-2 melanoma. The TGI is 11.7 µM with HOP-92 NSCLC; over 48.4 µM in the assay with SF-268 CNS; over 100 µM with SNB-19 CNS; 26.3 µM in the assay on PC-3 prostate; 0.439 µM in the assay with SK-MEL-5 melanoma; 24.1 µM with TK-10 renal. The TGI was 12.3 µM with MALME-3M melanoma, 2.74 µM in the assay on NCI-H522 lung, over 63.5 µM in the assay with SR leukemia and 10.3 µM with SK-MEL-2 melanoma.
In the case of `COC(=O)C1OC2(CCCC3CC32)O[C@H]1C(=O)OC` (some centres not stated), the TGI with HOP-92 NSCLC, with SF-268 CNS, with SNB-19 CNS, in the assay on PC-3 prostate, with TK-10 renal and in the assay on MALME-3M melanoma was over 100 µM in each case. Further, the TGI with NCI-H522 lung, in the assay on SR leukemia and with SK-MEL-2 melanoma was over 100 µM each time.
For the molecule `Cc1cn(C2C=CC(CO)O2)c(=O)[nH]c1=O` (configuration not stated), the TGI in the assay on HOP-92 NSCLC, in the assay on SF-268 CNS, with SNB-19 CNS, with PC-3 prostate, in the assay with SK-MEL-5 melanoma and in the assay on TK-10 renal was over 1000 µM throughout. For the same molecule, the TGI in the assay on MALME-3M melanoma, with NCI-H522 lung, in the assay on SR leukemia and with SK-MEL-2 melanoma was over 1000 µM each time.

(Values after PubChem BioAssay (NCI).)
